The subject of assay [1] is Staphylococcus aureus. Put plainly: Antimicrobial activity against Staphylococcus aureus ATCC 29213 at 200 ug/disk. The class given is functional. As to conditions: read-out: IZ.
The subject of assay [2] is Sordaria fimicola. The assay is described as follows: Antimicrobial activity against Sordaria fimicola assessed as reduction in radial growth rate at 200 ug/disk by inoculation disk assay. In kind it is functional. Details: scale not given: the % may be the effect or the level left.
The nature of assay [3]: Cytotoxicity against human NCI60 cells. The class given is functional.
Assay [4] concerns Ascobolus. The assay is described as follows: Antimicrobial activity against Ascobolus furfuraceus assessed as reduction in radial growth rate at 200 ug/disk by inoculation disk assay. Details: scale not given: the % may be the effect or the level left. The class given is functional.
Assay [5] has as its system Candida albicans. The assay is described as follows: Antimicrobial activity against Candida albicans ATCC 90029 at 200 ug/disk. In kind it is functional, organism-based.
Assay [6] relates to Bacillus subtilis. Put plainly: Antimicrobial activity against Bacillus subtilis ATCC 6051 at 200 ug/disk. In kind it is functional. The following applies: read-out: IZ.

Calls of active or inactive are those of the source. No cut-off for these calls is given here.

In the case of `COC1=CC(=O)C(C)=C(CC(C)=O)C1=O` [ANSERINONE A], the zone of inhibition at 200 µg/disc in assay [1] and in assay [6] was 40 mm in each case. Also, the results for the Activity in assay [2] and in assay [4] were 60% and 100%, respectively. Growth in assay [3] was halved (GI50) at 9.1 µM. Moreover, in assay [5], the result was inactive.

With `COC1=CC(=O)C(C)=C(C[C@H](C)O)C1=O` [ANSERINONE B], the zone of inhibition at 200 µg/disc in assay [1] and in assay [6] was 40 mm each time. The Activity was determined as 50% in assay [2] and 37% in assay [4]. The compound further returned a GI50 in assay [3] of 21 µM. In assay [5], the result was inactive.
